Where a SMILES comes first, the peptide text is derived from it. Bridges are numbered along the chain shown (N, C = ends). [ ]: non-standard residue; d: D form. R8 = C=CCCCCCC[C@@](C)(N)C(=O)O; S5 = C=CCCC[C@](C)(N)C(=O)O
Tests used:
[1] = system: NLRP3 inflammasome; test: IL-1β release from THP-1 cells stimulated with LPS and nigericin (ELISA); assay type: cell-based, human; conditions: THP-1, LPS 0.1 μg/ml 4 h, nigericin 10 μM 1 h, Fig. 8A
Experimental: We next examined whether the ASC peptides could inhibit IL-1β production, which is regulated by the inflammasome. We used THP-1 human monocytic cells to study inflammasome activation as they express high levels of NLRP3, ASC, and pro-casp-1. THP-1 cells were incubated with ms_ASC^PYD #1–6 or ms_NLRP3^PYD peptides at increasing concentrations for 4 hours and were then stimulated with LPS for 4 hours, followed by the NLRP3 activator nigericin for 1 hour. IL-1β levels were measured in the culture supernatant. […] The ms_ASC^PYD peptides reduced IL-1β production from THP-1 cells in response to LPS/nigericin stimulation to variable degrees (Fig. 6A). […] We decided to continue investigating in detail the inhibitory effects of ms_ASC^PYD #5 and #6 peptides, as their estimated binding energies matched well with the experimental data of suppression of ASC-dependent IL-1 release in a dose-dependent manner. Since ms_ASCPYD #6 is the shorter version of ms_ASCPYD #5, this selection also enabled us to verify the effect of varying peptide lengths.
(§1) Human monocytic THP-1 cells (1 × 10^7 cells) were plated in a 10-cm tissue culture dish and treated with PMA (200 nM) overnight to differentiate monocytic cells into macrophages. Cells were then washed and allowed to rest in fresh media for another day. For stimulation, differentiated THP-1 cells were trypsinized and seeded in 96-well plates (2 × 10^6/well). Peripheral blood mononuclear cells were isolated by Ficoll-Hypaque density gradient centrifugation from buffy coats obtained from anonymous donors provided by the National University Hospital Blood Bank, Singapore. Isolation of monocytes was performed using negative selection with the Monocyte Isolation Kit II (Miltenyi Biotech), following the manufacturer’s instructions. Monocytes were plated in tissue culture non-treated 96-well plates (2.5 × 10^5/well) in 250 µl RPMI 1640-Glutamax media supplemented with 3% human AB serum (Gemini Bio Products).
THP-1 cells and monocytes were incubated with NLRP3^PYD (12.5–25–50 μM), ASC^PYD #5 (12.5-25-50-100 μM) or ASC^PYD #6 (12.5-25-50-100 μM) for the indicated durations. Cells were then washed once with PBS and primed with E. coli LPS (0.1 μg/ml, Invivogen) for 4 h followed by stimulation with nigericin (10 μM) for an additional 1 h or ATP ([…]) for an additional 30 min. The cell culture supernatants were then collected and centrifuged at 500 × g to remove cells and cellular debris.
(§2) IL-1β levels were measured using antibodies from eBioscience (cat. #14-7018-81 and #13-7016-85), following the manufacturer’s instructions. IL-18 levels were measured using antibodies from MBL (D044-3 and D045-6) following the manufacturer’s instructions. The absorbance was measured at 450 nm with the reference wavelength at 570 nm, using an M200 Infinite plate reader (Tecan).

[2] = system: NLRP3 inflammasome; test: IL-18 secretion from LPS-primed primary human monocytes upon ATP stimulation (ELISA); assay type: cell-based; conditions: human blood monocytes, LPS 0.1 μg/ml 4 h, ATP 30 min; 25, 50 and 100 μM; Fig. 8B
Experimental: as §1, with “Products). […]” for “Products).”
as §2

[3] = system: NLRP3 inflammasome; test: IL-18 release from THP-1 cells stimulated with LPS and nigericin (ELISA); assay type: cell-based, human; conditions: THP-1, LPS/nigericin; 12.5, 25, 50 and 100 μM; Fig. 8A
Experimental: as §1, with “Products). […]” for “Products).”
as §2

[4] = system: NLRP3 inflammasome; test: IL-1β secretion from LPS-primed primary human monocytes upon ATP stimulation (ELISA); assay type: cell-based; conditions: human blood monocytes, LPS 0.1 μg/ml 4 h, ATP 30 min; 25, 50 and 100 μM; Fig. 8B
Experimental: as §1, with “Products). […]” for “Products).”
as §2

[5] = system: THP-1 cells; test: Internalization of FAM-labeled peptides by flow cytometry; assay type: in vitro ADME, human; conditions: THP-1, 37 °C, 4, 8 and 24 hours; FACS; three independent experiments
Experimental: As NLRP3 and ASC are cytosolic proteins, we examined whether the designed peptides could be taken up by monocytic cells to exert their biological effects. To assess peptide internalization, ms_NLRP3^PYD, ms_ASC^PYD #5 and #6 peptides were labeled with the FAM fluorophore at the N-terminus. Internalization of the FAM-labeled peptides was measured as the mean fluorescence intensity (MFI) by fluorescence-assisted cell sorting (FACS). THP-1 cells were incubated with FAM-labeled ms_NLRP3^PYD (12.5, 25 and 50 μM), ms_ASC^PYD #5 and #6 peptides (50 and 100 μM) for 4, 8 and 24 hours. The internalization of the three FAM-labelled peptides was concentration dependent (Fig. 7A,B). […] We also examined the internalization of FAM-labeled peptides in THP-1 cells by confocal microscopy. THP-1 cells were incubated with FAM-ms_NLRP3^PYD (100 μM), FAM-ms_ASC^PYD #5 or FAM-ms_ASC^PYD #6 (100 μM) for 4, 8 and 18 hours. FAM-labeled peptides localized primarily in the cytosol, but not in the nucleus, of THP-1 cells (Fig. 7C).
THP-1 cells (0.5 × 10^6) were incubated with FAM-NLRP3^PYD (12.5-25-50 μM), FAM-ASC^PYD #5 or FAM-ASC^PYD #6 (50-100 μM) peptides in a 6 well-plate. After 4, 8 and 24 h incubation, THP-1 cells were washed twice with PBS and harvested. The analysis was performed on a BD FACSCANTO II (BD Biosciences), and the data were analyzed using FlowJo (Treestar).

CC[C@H](C)[C@@H]1NC(=O)[C@H](CCCCN)NC(=O)[C@H](C)NC(=O)[C@H](CCCCN)NC(=O)[C@H](CCCCN)NC(=O)[C@](C)(NC(=O)[C@H](C)NC(=O)[C@H](CCCNC(=N)N)NC(C)=O)CCCCCCC=CCCC[C@@](C)(C(=O)N[C@@H](CCC(=O)O)C(=O)N[C@@H](CO)C(=O)N[C@H](C(N)=O)C(C)C)NC(=O)[C@H](CCCCN)NC1=O [ms_ASC^PYD #6] (Ac-RA[R8]KKAKIK[S5]ESV-NH2; staple 3-10)
Inhibition of IL-1β production ([1]; 50 μM peptide): > 60%
Inhibition of IL-1β production ([1]; 100 μM peptide): > 90%
IL-18 secretion (in words) [2]: effectively inhibited
IL-18 production (in words) [3]: decreased IL-18 production by LPS/nigericin-stimulated THP-1 cells in a dose-dependent manner
IL-1β secretion (in words) [4]: effectively inhibited

CC[C@H](C)[C@@H]1NC(=O)[C@H](CCCCN)NC(=O)[C@H](C)NC(=O)[C@H](CC(C)C)NC(=O)[C@H](CCCCN)NC(=O)[C@](C)(NC(=O)[C@H](C)NC(=O)[C@H](CCCNC(=N)N)NC(=O)[C@H](C)NC(=O)[C@@H](NC(C)=O)[C@@H](C)O)CCCCCCC=CCCC[C@@](C)(C(=O)N[C@@H](CCC(=O)O)C(=O)N[C@@H](CO)C(=O)N[C@H](C(N)=O)C(C)C)NC(=O)[C@H](CCCCN)NC1=O [ms_ASC^PYD #5] (Ac-TARA[R8]KLAKIK[S5]ESV-NH2; staple 5-12)
Inhibition of IL-1β production ([1]; 50 μM peptide): > 60%
Inhibition of IL-1β production ([1]; 100 μM peptide): > 90%
IL-18 secretion (in words) [2]: effectively inhibited
Fluorescent signal (MFI) of internalized peptide over time [5]: the fluorescent intensity subsequently decreased over-time
IL-18 production (in words) [3]: decreased IL-18 production by LPS/nigericin-stimulated THP-1 cells in a dose-dependent manner
IL-1β secretion (in words) [4]: effectively inhibited

Source: publication PMC6426897, “Inhibition of NLRP3 inflammasome activation by cell-permeable stapled peptides” (Scientific Reports, 2019)
